Where two headings read alike, the source gives them in different places.
Assays:
[1] = tested on: subjects with autistic spectrum disorder; type: in vivo
Excerpt: The systemic nature of Autistic Spectrum Disorder (ASD) and the pervasive developmental delay (PDD) that may accompany it has led the inventor of the invention to view the complexity of these presentations by addressing them from a cell membrane perspective. Autistic spectrum disorder is a complex neurodevelopmental disorder, which has been investigated under an open clinical study rather than randomized, placebo, controlled and double blinded studies due to the constellation of symptoms in autistic spectrum disorder and multiple variables in regard to the oral and IV intervention. Each subject served as his or her own control for several reasons, 1) control pediatric subjects are difficult to obtain due to the use of intravenous therapy, 2) compliance in regard to a restricted carbohydrate diet and oral intake of supplements is limited in controls, and 3) matching two subjects with the same diagnosis, gender, age, development, metabolism and presentation is unrealistic in regard to autism and PDD. Presently there are no biological markers that exist to identify autistic spectrum disorder in addition to speculation that multiple, variable susceptibility genes, epigenetic effects, and environmental factors complicate the disorder we term autism.
The case studies represented below present the result of the treatment regimen on 300 subjects studied. Phospholipid re-modeling of these subjects were stimulated by supplying oral or IV phospholipids, principally PC, as well as balanced essential fatty acids and catalysts via nutritional and phamaneutical interventions.
A butterfly catheter with a 23-gauge needle was inserted into a vein of the antecubital region of one of the subjects' arms. A syringe containing the PC (phosphatidylcholine) composition in about 5 to about 10 cc volume was connected to the catheter by a flexible tube. A volume of blood equal to the total volume of the PC composition was drawn into the syringe and the syringe was gently agitated to mix the blood and PC composition. The blood/PC composition mixture was then infused (or “pushed”) as a lipid exchange into the subject over a period of two to three minutes.
A butterfly catheter with a 23-gauge needle was inserted into a vein of the antecubital region of one of the subjects' arms. The PC composition was infused first followed by a pre-prepared syringe containing about 2 mg (0.2 cc) to about 5 mg (0.5 cc) of Leucovorin over the period of 2-3 minutes.
A butterfly catheter with a 23-gauge needle was inserted into a vein of the antecubital region of one of the subjects' arms. The PC and Leucovorin compositions were infused first followed by a pre-prepared syringe containing about 1.5 to 6 cc of glutathione generally pre-mixed with an equal portion of sterile water (not saline). The composition containing glutathione was followed the IV PC with a pre-prepared syringe of glutathione using the same needle. This procedure avoids re-sticking the patient by infusing first the PC, then the Leucovorin and then the glutathione using the same butterfly catheter with a flexible tube infused (or “pushed”) into the subject over a period of two to five minutes.

[2] = L-Glutathione capsules, stomach acid; cited from earlier work
[3] = tested on: mouse model of Bulbar ALS; conditions: oral administration; cited from earlier work
[4] = IV bolus doses of 7 grams, 14 grams and 21 grams; cited from earlier work
[5] = cited from earlier work

In the case of `O=C(O)[C@@H](S)[C@@H](S)C(=O)O` [DMSA, meso-2,3-dimercaptosuccinic acid], the adverse outcome ([1]; Case Study Seven, 13 months of oral dosing by another physician) is reported as “increased left side weakness”.
For `N[C@@H](CCC(=O)N[C@@H](CS)C(=O)NCC(=O)O)C(=O)O` [Glutathione, N—(N-L-gamma-glutamyl-L-cysteinyl) glycine], the “stability when taken orally” value [2] is given as “very unstable and is destroyed by the stomach acid before it can be absorbed”.
For `CCCC(=O)[O-].[Na+]` [sodium butyrate], the “acetylation of nuclear histone in neural tissues” value [3] is given as “increased acetylation of nuclear histone in neural tissues” and the neurological phenotypes [3] is given as “successfully ameliorated neurological phenotypes”.
In the case of Phosphatidylcholine, the side effects [4] is given as “no side effects were observed”, the oral absorption ([5]; taken orally with meals) is given as “up to 90 % per 24 hrs” and the “time over which blood levels peak” value ([5]; taken orally) is given as 8 to 12 h. The clinical response ([1]; Case Study Five, 2 grams then 3 grams on consecutive weeks dripped over 3 hours) was “increased awareness/communication”, the clinical response ([1]; Case Study Seven, IV 500 mg two to three times weekly, after 6 weeks) was “dramatic improvement in response to others and the world around them” and the clinical response ([1]; Case Study Seven, IV lipid exchange 250 mg followed by 0.3 cc leucovorin and 1200 mg GSH, once weekly) was “positive responsive”. The clinical response ([1]; Case Study Seven, bolus dosing) was “increased language and awareness”, the clinical response ([1]; Case Study Six, IV 500 mg twice weekly, after 6 weeks) was “improvement in fatigue, stable mood, return of focus, improvement in memory, clearance of orange color on palms/soles, less headaches, improved learning” and the clinical response ([1]; Case Study Six, IV lipid exchange 250 mg once weekly with supplementation and diet) was “responsive”. For the same compound, the clinical response ([1]; Case Study Six, bolus 1.5 grams in D5W dripped over 2 hours followed by glutathione) was “improved cognition, increased circulation, improved eye contact and more demonstrative, loving behavior” and the tolerability ([1]; Case Study Six, bolus 3 grams dripped over 4 hours) was “well tolerated”.
